Assay results published in patent US20260055079A1, “PHTHALAZINONE COMPOUNDS AS PARP7 INHIBITORS” (AZKARRA THERAPEUTICS, INC., priority 2022, published 2026).
Where two headings read alike, the source gives them in different places.

Columns and labels:
[1] = target: His-GST-PARP7 (Homo sapiens (Human), UniProt Q7Z3E1); assay: PARP7 biochemical assay; conditions: read-out: PARP7 IC50
[2] = target: PARP1 (Homo sapiens (Human), UniProt P09874); assay: PARP1 biochemical assay
[3] = target: PARP2 (Homo sapiens (Human), UniProt Q9UGN5); assay: PARP2 biochemical assay; conditions: read-out: PARP2 IC50
[4] = system: NCI-H1373 (human lung adenocarcinoma) cells; assay: Cell proliferation assay (CellTiter-Glo), NCI-H1373; format: cell-based; conditions: 6 days, CellTiter-Glo, read-out: NCI-H1373 GI50
[5] = system: HARA (human lung squamous cell carcinoma) cells; assay: Cell proliferation assay (CellTiter-Glo), HARA; format: cell-based; conditions: 6 days, CellTiter-Glo, read-out: HARA GI50
[6] = system: STING, pTBK1, pIRF3; assay: STING, pTBK1 and pIRF3 western blot in CT-26 cells; format: cell-based, mouse
[7] = system: CT26 (mouse colon adenocarcinoma) cells; assay: Cell proliferation assay (CellTiter-Glo), CT26; format: cell-based; conditions: Mus musculus, CT26, 144 h, 6 days
[8] = system: secreted IFN-β; assay: Interferon-β ELISA, CT-26 cells; format: cell-based, mouse
Protocol: CT-26 cells were seeded into a 6-well plate. After 24 h, the growth media was replaced, and cells were treated with inhibitors. After treatment, growth media was harvested and assayed with PBL Verikine Mouse IFN-β ELISA kit following the manufacturer protocol.

Sequence of PARP1 (P09874 whole entry, species assumed): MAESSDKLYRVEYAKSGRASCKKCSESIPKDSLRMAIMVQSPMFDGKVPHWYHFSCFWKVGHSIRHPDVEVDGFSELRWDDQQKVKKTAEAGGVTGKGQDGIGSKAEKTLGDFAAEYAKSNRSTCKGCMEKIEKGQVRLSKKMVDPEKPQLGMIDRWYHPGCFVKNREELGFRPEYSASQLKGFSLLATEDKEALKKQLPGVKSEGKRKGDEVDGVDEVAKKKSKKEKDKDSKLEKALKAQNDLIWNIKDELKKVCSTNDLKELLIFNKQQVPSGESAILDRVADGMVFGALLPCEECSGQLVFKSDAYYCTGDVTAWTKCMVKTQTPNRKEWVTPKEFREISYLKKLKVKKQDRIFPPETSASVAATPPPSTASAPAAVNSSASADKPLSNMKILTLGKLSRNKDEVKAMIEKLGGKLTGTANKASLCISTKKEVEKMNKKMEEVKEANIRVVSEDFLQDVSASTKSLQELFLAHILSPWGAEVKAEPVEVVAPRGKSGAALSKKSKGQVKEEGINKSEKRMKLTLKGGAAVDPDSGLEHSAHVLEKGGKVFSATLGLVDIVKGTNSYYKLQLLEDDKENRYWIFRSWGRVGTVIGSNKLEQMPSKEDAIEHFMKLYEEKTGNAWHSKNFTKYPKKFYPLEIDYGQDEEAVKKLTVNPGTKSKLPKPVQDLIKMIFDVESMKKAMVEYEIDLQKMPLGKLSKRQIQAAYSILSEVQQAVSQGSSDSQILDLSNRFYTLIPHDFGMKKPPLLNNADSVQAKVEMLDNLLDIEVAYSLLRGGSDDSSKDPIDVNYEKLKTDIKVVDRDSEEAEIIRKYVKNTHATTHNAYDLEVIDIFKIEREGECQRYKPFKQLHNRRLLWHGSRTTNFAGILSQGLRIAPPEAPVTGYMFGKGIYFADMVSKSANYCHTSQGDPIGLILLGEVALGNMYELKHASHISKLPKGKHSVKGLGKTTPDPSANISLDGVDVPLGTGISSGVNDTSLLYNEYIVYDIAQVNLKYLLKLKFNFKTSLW
Sequence of PARP2 (Q9UGN5 whole entry): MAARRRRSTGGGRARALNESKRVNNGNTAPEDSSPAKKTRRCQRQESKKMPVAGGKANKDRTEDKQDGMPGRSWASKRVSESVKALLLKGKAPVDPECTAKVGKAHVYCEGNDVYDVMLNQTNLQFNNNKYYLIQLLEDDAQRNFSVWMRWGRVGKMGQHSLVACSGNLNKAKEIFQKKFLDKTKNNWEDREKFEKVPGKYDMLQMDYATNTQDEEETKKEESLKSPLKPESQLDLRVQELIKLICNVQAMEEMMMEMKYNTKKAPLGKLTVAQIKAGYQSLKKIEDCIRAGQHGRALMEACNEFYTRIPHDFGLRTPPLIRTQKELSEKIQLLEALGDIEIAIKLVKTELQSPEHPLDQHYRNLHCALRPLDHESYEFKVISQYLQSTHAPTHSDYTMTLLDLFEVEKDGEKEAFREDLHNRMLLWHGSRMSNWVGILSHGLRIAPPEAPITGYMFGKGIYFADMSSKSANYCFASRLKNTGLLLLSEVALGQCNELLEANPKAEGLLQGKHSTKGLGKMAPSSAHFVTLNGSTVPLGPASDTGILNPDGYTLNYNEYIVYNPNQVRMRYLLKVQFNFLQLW
Sequence of His-GST-PARP7 (Q7Z3E1 whole entry): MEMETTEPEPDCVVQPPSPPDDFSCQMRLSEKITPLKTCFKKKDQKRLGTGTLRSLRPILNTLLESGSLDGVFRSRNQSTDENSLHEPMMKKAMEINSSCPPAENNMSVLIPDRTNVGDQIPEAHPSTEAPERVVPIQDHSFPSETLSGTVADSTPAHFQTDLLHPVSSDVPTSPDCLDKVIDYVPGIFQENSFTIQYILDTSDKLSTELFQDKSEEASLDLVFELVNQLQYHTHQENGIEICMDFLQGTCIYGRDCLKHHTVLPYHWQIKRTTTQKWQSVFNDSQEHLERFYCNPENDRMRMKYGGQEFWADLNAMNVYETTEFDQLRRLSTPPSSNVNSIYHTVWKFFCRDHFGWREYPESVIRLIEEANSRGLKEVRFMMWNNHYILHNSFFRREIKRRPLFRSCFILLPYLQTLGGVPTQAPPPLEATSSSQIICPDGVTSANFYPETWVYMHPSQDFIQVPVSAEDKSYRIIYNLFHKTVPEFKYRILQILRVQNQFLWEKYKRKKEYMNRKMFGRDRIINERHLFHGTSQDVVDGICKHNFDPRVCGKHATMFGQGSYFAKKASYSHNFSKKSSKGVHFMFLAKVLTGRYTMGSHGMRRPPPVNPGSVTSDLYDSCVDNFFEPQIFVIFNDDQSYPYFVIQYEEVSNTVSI

6-(4-(5-((7-cyclobutoxy-4-oxo-3,4-dihydrophthalazin-1-yl)methyl)-2-fluorobenzoyl)piperazin-1-yl)-4-methoxynicotinonitrile [Example 137]
IC50 [1]: < 50 nM
IC50 [2]: > 2000 nM
IC50 [3]: 100 to 500 nM
GI50 [4]: < 100 nM
GI50 [5]: 1000 to 5000 nM

Cc1ccc2c(=O)c3cccc(CC(=O)O)c3oc2c1C [DMXAA]
STING levels [6]: decreased substantially STING levels
pTBK1 and pIRF3 [6]: induced robustly both pTBK1 and pIRF3

C#CC(C)Oc1ccc2c(=O)[nH]nc(Cc3ccc(F)c(C(=O)N4CCN(c5ccc(C#N)cn5)CC4)c3)c2c1 (centres unmarked) [Example 8, 6-(4-(5-((7-(But-3-yn-2-yloxy)-4-oxo-3,4-dihydrophthalazin-1-yl)methyl)-2-fluorobenzoyl)piperazin-1-yl)nicotinonitrile]
IC50 [1]: < 50 nM
IC50 [2]: 100 to 500 nM
IC50 [3]: 100 to 500 nM
GI50 ([4]; Homo sapiens, NCI-H1373, 144 h): < 100 nM
GI50 ([5]; Homo sapiens, 144 h): 1000 to 5000 nM
GI50 [7]: < 100 nM

CC#Cc1ccc2c(=O)[nH]nc(Cc3ccc(F)c(C(=O)N4CCn5c(nnc5C(F)(F)F)C4)c3)c2c1 [Example 65, 4-(4-fluoro-3-(3-(trifluoromethyl)-5,6,7,8-tetrahydro-[1,2,4]triazolo[4,3-a]pyrazine-7-carbonyl)benzyl)-6-(prop-1-yn-1-yl)phthalazin-1(2H)-one]
IC50 [1]: < 50 nM
IC50 [2]: 50 to 100 nM
IC50 [3]: 50 to 100 nM
GI50 ([4]; Homo sapiens, NCI-H1373, 144 h): 100 to 1000 nM

COc1cc2c(Cc3cccc(C(=O)N4CCN(c5ccc(C#N)cn5)CC4)c3)n[nH]c(=O)c2cc1F [Example 82, 6-(4-(3-((6-Fluoro-7-methoxy-4-oxo-3,4-dihydrophthalazin-1-yl)methyl)benzoyl)piperazin-1-yl)nicotinonitrile]
IC50 [1]: < 50 nM
IC50 [2]: < 50 nM
IC50 [3]: < 50 nM
GI50 ([4]; Homo sapiens, NCI-H1373, 144 h): < 100 nM
GI50 ([5]; Homo sapiens, 144 h): 100 to 1000 nM
GI50 [7]: < 100 nM

CC#Cc1cc(C(F)(F)F)c2c(=O)[nH]nc(Cc3ccc(F)c(C(=O)N4CCN(c5ccc(C#N)cn5)CC4)c3)c2c1 [Example 84, 6-(4-(2-Fluoro-5-((4-oxo-7-(prop-1-yn-1-yl)-5-(trifluoromethyl)-3,4-dihydrophthalazin-1-yl)methyl)benzoyl)piperazin-1-yl)nicotinonitrile]
IC50 [1]: < 50 nM
IC50 [2]: 100 to 500 nM
IC50 [3]: 100 to 500 nM
GI50 ([4]; Homo sapiens, NCI-H1373, 144 h): < 100 nM
GI50 ([5]; Homo sapiens, 144 h): 1000 to 5000 nM
GI50 [7]: > 5000 nM

CC#Cc1ccc2c(=O)[nH]nc(Cc3ccc(F)c(C(=O)N4CCN(c5ccc(C#N)cn5)CC4)c3)c2c1C [Example 86, 6-(4-(2-Fluoro-5-((8-methyl-4-oxo-7-(prop-1-ynyl)-3,4-dihydrophthalazin-1-yl)methyl)benzoyl)piperazin-1-yl)nicotinonitrile]
IC50 [1]: < 50 nM
IC50 [2]: 50 to 100 nM
IC50 [3]: 500 to 2000 nM
GI50 ([4]; Homo sapiens, NCI-H1373, 144 h): < 100 nM
GI50 ([5]; Homo sapiens, 144 h): 1000 to 5000 nM
GI50 [7]: > 5000 nM

N#Cc1ccc(N2CCN(C(=O)c3cccc(Cc4n[nH]c(=O)c5c(F)c(F)ccc45)c3)CC2)nc1 [Example 87, 6-(4-(3-((5,6-Difluoro-4-oxo-3,4-dihydrophthalazin-1-yl)methyl)benzoyl)piperazin-1-yl)nicotinonitrile]
IC50 [1]: < 50 nM
IC50 [2]: < 50 nM
IC50 [3]: < 50 nM
GI50 ([4]; Homo sapiens, NCI-H1373, 144 h): < 100 nM
GI50 ([5]; Homo sapiens, 144 h): 100 to 1000 nM
GI50 [7]: 100 to 1000 nM

N#Cc1ccc(N2CCN(C(=O)c3cccc(Cc4n[nH]c(=O)c5ccc(OC6CCC6)cc45)n3)CC2)nc1 [Example 176, 6-(4-(6-((7-Cyclobutoxy-4-oxo-3,4-dihydrophthalazin-1-yl)methyl)picolinoyl)piperazin-1-yl)nicotinonitrile]
IC50 [1]: < 50 nM
IC50 [2]: 50 to 100 nM
IC50 [3]: 100 to 500 nM
GI50 ([4]; Homo sapiens, NCI-H1373, 144 h): 100 to 1000 nM
GI50 ([5]; Homo sapiens, 144 h): > 5000 nM
GI50 [7]: 1000 to 5000 nM

N#Cc1ccc(N2CCN(C(=O)c3cncc(Cc4n[nH]c(=O)c5ccc(OC6CCC6)cc45)c3)CC2)nc1 [Example 177, 6-(4-(5-((7-Cyclobutoxy-4-oxo-3,4-dihydrophthalazin-1-yl)methyl)nicotinoyl)piperazin-1-yl)nicotinonitrile]
IC50 [1]: < 50 nM
IC50 [2]: 50 to 100 nM
IC50 [3]: 100 to 500 nM
GI50 ([4]; Homo sapiens, NCI-H1373, 144 h): < 100 nM
GI50 ([5]; Homo sapiens, 144 h): > 5000 nM
GI50 [7]: > 5000 nM

N#Cc1ccc(N2CCN(C(=O)c3cc(Cc4n[nH]c(=O)c5ccc(OC6CCC6)cc45)ccn3)CC2)nc1 [Example 179, 6-(4-(4-((7-Cyclobutoxy-4-oxo-3,4-dihydrophthalazin-1-yl)methyl)picolinoyl)piperazin-1-yl)nicotinonitrile]
IC50 [1]: < 50 nM
GI50 ([4]; Homo sapiens, NCI-H1373, 144 h): < 100 nM
GI50 ([5]; Homo sapiens, 144 h): > 5000 nM
GI50 [7]: > 5000 nM

N#Cc1ccc(N2CCN(C(=O)c3ccnc(Cc4n[nH]c(=O)c5ccc(OC6CCC6)cc45)c3)CC2)nc1 [Example 180, 6-(4-(2-((7-Cyclobutoxy-4-oxo-3,4-dihydrophthalazin-1-yl)methyl)isonicotinoyl)piperazin-1-yl)nicotinonitrile]
IC50 [1]: < 50 nM
GI50 ([4]; Homo sapiens, NCI-H1373, 144 h): < 100 nM
GI50 ([5]; Homo sapiens, 144 h): > 5000 nM
GI50 [7]: 1000 to 5000 nM

CC#Cc1ccc2c(=O)[nH]nc(CNC(C)CC(=O)N3CCN(c4ncc(C(F)(F)F)cn4)CC3)c2c1 (centres unmarked) [Example 191, 4-(((4-Oxo-4-(4-(5-(trifluoromethyl)pyrimidin-2-yl)piperazin-1-yl)butan-2-yl)amino)methyl)-6-(prop-1-yn-1-yl)phthalazin-1(2H)-one]
IC50 [1]: < 50 nM
IC50 [2]: > 2000 nM
IC50 [3]: > 2000 nM
GI50 ([4]; Homo sapiens, NCI-H1373, 144 h): 100 to 1000 nM
GI50 ([5]; Homo sapiens, 144 h): 1000 to 5000 nM
GI50 [7]: > 5000 nM

CCc1ccc(NC(=O)Nc2c[nH]c3ccccc23)cc1 [Example H-151]
PARP7 inhibitor-induced induction of IFN-β [8]: completely blocked
